pEC50, pIC50, pKi: −log10 of the molar value.
How the values were obtained:
[1] = Tested for antiviral activity in HIV-1 infected PBMC; 100-300; assay type: functional; details: Human immunodeficiency virus 1; read-out: ED50 (the source's name)
[2] = biological target: T1, Human immunodeficiency virus type 1 protease (Human immunodeficiency virus 1, UniProt Q72874); assay: (§1) Tested for the HIV Protease inhibitory activity of the compound
[3] = biological target: T1, Human immunodeficiency virus type 1 protease; assay: as §1; assay type: functional
[4] = Tested for pharmacokinetic parameter to calculate the total body clearance at a dosage of 12 mg/kg in rat; assay type: ADME, organism-based; design: dose 12 mg/kg; details: in vivo, read-out: ClT
[5] = Tested for pharmacokinetic parameter to calculate the total body clearance at a dosage of 2.5 mg/kg in dog; assay type: ADME, organism-based, Canis lupus familiaris; design: dose 2.5 mg/kg; details: in vivo, read-out: ClT
[6] = Oral bioavailability in dog; assay type: ADME, organism-based, Canis lupus familiaris; details: in vivo
[7] = Oral bioavailability in rat; assay type: ADME, organism-based; details: in vivo
[8] = Tested for pharmacokinetic parameter to calculate the steady-state volume of distributio at a dosage of 12 mg/kg in rat; assay type: ADME, organism-based; design: dose 12 mg/kg; details: in vivo, read-out: Vss
[9] = Tested for pharmacokinetic parameter to calculate the steady-state volume of distributio at a dosage of 2.5 mg/kg in dog; assay type: ADME, organism-based, Canis lupus familiaris; design: dose 2.5 mg/kg; details: in vivo, read-out: Vss
[10] = Tested for pharmacokinetic parameter to calculate the half life period at a dosage of 12 mg/kg in rat; assay type: ADME, organism-based; design: dose 12 mg/kg; details: in vivo
[11] = Tested for pharmacokinetic parameter to calculate the half life period at a dosage of 2.5 mg/kg in dog; assay type: ADME, organism-based, Canis lupus familiaris; design: dose 2.5 mg/kg; details: in vivo
[12] = biological target: Cathepsin D (Homo sapiens) (UniProt P07339); assay: Tested for the inhibitory activity against human aspartyl protease, cathepsin D at 10 uM concentration
Sequence of Cathepsin D (Homo sapiens) (P07339 65-162 limits assumed): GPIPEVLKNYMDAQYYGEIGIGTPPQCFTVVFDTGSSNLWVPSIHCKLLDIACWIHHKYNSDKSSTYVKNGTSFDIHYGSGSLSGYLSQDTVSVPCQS
Sequence of Cathepsin D (Homo sapiens) (P07339 169-412 limits assumed): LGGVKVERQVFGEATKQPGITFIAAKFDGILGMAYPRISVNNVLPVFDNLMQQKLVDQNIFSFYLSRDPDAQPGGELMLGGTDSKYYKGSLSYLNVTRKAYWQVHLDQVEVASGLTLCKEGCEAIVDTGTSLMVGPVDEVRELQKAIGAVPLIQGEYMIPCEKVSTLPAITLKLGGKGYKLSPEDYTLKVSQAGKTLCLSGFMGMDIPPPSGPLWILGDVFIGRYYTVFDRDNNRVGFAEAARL

[13] = biological target: T2, Cathepsin E (Homo sapiens) (UniProt P14091); assay: Tested for the inhibitory activity against human aspartyl protease, cathepsin E at 10 uM concentration
T2 sequence (whole entry): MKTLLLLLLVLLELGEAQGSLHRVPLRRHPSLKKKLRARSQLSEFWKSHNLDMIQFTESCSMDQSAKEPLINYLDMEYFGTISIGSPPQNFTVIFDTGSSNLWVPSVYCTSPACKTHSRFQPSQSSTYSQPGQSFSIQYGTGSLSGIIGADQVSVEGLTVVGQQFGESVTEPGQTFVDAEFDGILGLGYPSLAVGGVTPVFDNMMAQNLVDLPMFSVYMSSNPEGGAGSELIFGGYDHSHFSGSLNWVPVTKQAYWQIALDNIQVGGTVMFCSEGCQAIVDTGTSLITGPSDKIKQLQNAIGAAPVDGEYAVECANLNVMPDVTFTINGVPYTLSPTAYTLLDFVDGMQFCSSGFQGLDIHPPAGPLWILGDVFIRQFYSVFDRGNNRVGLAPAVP

[14] = tested on: H9; assay: Tested for the antiviral activity against HIV-1 IIIB-infected H9 cells; assay type: functional; details: Homo sapiens, read-out: ED50 (the source's name)
[15] = tested on: MT4; assay: Tested for the antiviral activity against HIV-1 IIIB-infected MT-4; assay type: functional; details: Homo sapiens, read-out: ED50 (the source's name)
[16] = biological target: Pepsin A (Homo sapiens) (UniProt P0DJD9); assay: Inhibitory activity against human aspartyl protease, pepsin at 10 uM
Sequence of Pepsin A (Homo sapiens) (P0DJD9 63-388 limits assumed): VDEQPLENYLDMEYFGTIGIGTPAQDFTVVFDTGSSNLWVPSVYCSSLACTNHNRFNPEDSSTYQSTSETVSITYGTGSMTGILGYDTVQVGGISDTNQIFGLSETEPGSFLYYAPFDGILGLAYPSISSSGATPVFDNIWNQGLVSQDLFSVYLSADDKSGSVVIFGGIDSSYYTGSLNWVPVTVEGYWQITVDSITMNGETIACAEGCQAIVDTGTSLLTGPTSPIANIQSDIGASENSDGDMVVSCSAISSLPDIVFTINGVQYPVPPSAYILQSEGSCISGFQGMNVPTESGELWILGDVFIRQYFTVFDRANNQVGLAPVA

[17] = biological target: T1, Human immunodeficiency virus type 1 protease; assay: Tested for the binding affinity against HIV-1 Protease
[18] = biological target: T3, Renin (Homo sapiens) (UniProt P00797); assay: Tested for the inhibitory activity against human aspartyl protease, renin at 10 uM concentration
T3 sequence (whole entry): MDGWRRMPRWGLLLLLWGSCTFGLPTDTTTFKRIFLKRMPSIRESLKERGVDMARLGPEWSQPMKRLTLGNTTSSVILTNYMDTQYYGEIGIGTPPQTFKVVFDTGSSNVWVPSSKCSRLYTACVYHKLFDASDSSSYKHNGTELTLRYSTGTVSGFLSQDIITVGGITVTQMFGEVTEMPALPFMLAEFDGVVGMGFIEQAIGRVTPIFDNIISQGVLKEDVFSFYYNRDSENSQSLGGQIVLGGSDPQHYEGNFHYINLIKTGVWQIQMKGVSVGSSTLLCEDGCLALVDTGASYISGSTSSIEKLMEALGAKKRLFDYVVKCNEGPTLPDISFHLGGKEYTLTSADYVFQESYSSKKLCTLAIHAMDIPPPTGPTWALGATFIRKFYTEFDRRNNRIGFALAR

[19] = Tested for antiviral activity against clinical isolates such as AZT resistant strain; assay type: functional; details: read-out: ED50 (the source's name)
[20] = biological target: Human immunodeficiency virus type 1 protease (Human immunodeficiency virus 1) (UniProt Q72874); assay: Tested for the activity against HIV protease
[21] = biological target: Gastricsin (Homo sapiens) (UniProt P20142); assay: Tested for the inhibitory activity against human aspartyl protease gastricsin at 10 uM concentration
Sequence of Gastricsin (Homo sapiens) (P20142 whole entry, looked up): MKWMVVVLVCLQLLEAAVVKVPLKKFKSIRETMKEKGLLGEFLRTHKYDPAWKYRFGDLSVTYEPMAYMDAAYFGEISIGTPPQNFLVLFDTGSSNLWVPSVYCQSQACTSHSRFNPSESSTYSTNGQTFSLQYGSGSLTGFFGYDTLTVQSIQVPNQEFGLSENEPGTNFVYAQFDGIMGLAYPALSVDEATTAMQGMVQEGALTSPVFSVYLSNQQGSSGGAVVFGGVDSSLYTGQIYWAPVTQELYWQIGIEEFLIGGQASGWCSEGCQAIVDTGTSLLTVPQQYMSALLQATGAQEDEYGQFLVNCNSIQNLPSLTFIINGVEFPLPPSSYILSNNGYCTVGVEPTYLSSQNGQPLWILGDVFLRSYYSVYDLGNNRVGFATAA

In the case of `CCC(c1ccccc1)c1c(O)c2ccccc2oc1=O` (configuration not stated) [PHENPROCOUMON], the pEC50 [1] was 3.52 and the pKi [2] was 6.00.
Work on `CC(=O)CC(c1ccccc1)c1c(O)c2ccccc2oc1=O` (configuration not stated) [WARFARIN] yielded a pIC50 [3] of about 4.52.
`CCC(Cc1ccccc1)c1cc(O)c(C(CC)c2ccccc2)c(=O)o1` (configuration not stated) gave a clearance [4] of 0.8 mL/min/kg, a clearance [5] of 0.7 mL/min/kg and a bioavailability [6] of 45%. For the same compound, the bioavailability [7] was 76%, the Vd [8] was 0.1 L/kg and the Vd [9] was 0.26 L/kg. For the same compound, the half-life [10] was 4 h, the half-life [11] was 6 h and the inhibition [12] was 52%. The inhibition [13] was 72%, the pEC50 [14] was 5.52 and the pEC50 [15] was 5.52. The inhibition [16] was 53%, the pKi [17] was 7.42 and the inhibition [18] was 0%. It also gave a pEC50 [19] of 5.40, a TCID50 [20] of 20 µM and an inhibition [21] of 0%.
Work on `CCC(c1ccccc1)c1c(O)cc(CCc2ccccc2)oc1=O` (configuration not stated) yielded a pKi [2] of 6.30.

From ChEMBL document CHEMBL1127342, “Structure-based design of HIV protease inhibitors: 4-hydroxycoumarins and 4-hydroxy-2-pyrones as non-peptidic inhibitors” (J Med Chem, 1994)
